Measurements reported in ChEMBL document CHEMBL3351437, “Ralfuranone Is Produced by an Alternative Aryl-Substituted γ-Lactone Biosynthetic Route in Ralstonia solanacearum” (2014).
≈ marks a conversion by molar mass, not a printed value. Calls of active or inactive are those of the source. The rule behind the calls is not given here.

Tests used:
Penicillium chrysogenum [1] = assay: Antimicrobial activity against Penicillium notatum assessed as inhibition of conidia germination after 18 hrs by microdilution method; assay type: functional
Staphylococcus aureus [2] = assay: Antimicrobial activity against Staphylococcus aureus after 18 hrs by microdilution method; assay type: functional
Bacillus subtilis [3] = assay: Antimicrobial activity against Bacillus subtilis after 18 hrs by microdilution method; assay type: functional
Enterococcus faecalis [4] = assay: Antimicrobial activity against vancomycin-resistant Enterococcus faecalis after 18 hrs by microdilution method; assay type: functional
Staphylococcus aureus [5] = assay: Antimicrobial activity against methicillin-resistant Staphylococcus aureus after 18 hrs by microdilution method; assay type: functional
Mycolicibacterium vaccae [6] = assay: Antimicrobial activity against Mycobacterium vaccae after 18 hrs by microdilution method; assay type: functional
Penicillium chrysogenum [7] = assay: Antimicrobial activity against Penicillium notatum assessed as inhibition of conidia germination at 342 uM after 18 hrs by microdilution method; assay type: functional, organism-based
Staphylococcus aureus [8] = assay: Antimicrobial activity against Staphylococcus aureus at 342 uM after 18 hrs by microdilution method; assay type: functional, organism-based
Mycolicibacterium vaccae [9] = assay: Antimicrobial activity against Mycobacterium vaccae at 342 uM after 18 hrs by microdilution method; assay type: functional, organism-based
Staphylococcus aureus [10] = assay: Antimicrobial activity against methicillin-resistant Staphylococcus aureus at 342 uM after 18 hrs by microdilution method; assay type: functional, organism-based
Enterococcus faecalis [11] = assay: Antimicrobial activity against vancomycin-resistant Enterococcus faecalis at 342 uM after 18 hrs by microdilution method; assay type: functional, organism-based
Bacillus subtilis [12] = assay: Antimicrobial activity against Bacillus subtilis at 342 uM after 18 hrs by microdilution method; assay type: functional, organism-based

Compound | MIC (Penicillium chrysogenum [1]) | MIC (Bacillus subtilis [3]) | MIC (Enterococcus faecalis [4]) | MIC (Mycolicibacterium vaccae [6]) | also measured
O=C(O)C1=C(c2ccccc2)/C(=C/c2ccccc2)C(=O)O1 | 42.4 µM | 5.3 µM | 21.2 µM | 10.6 µM | MIC (Staphylococcus aureus [2]): 5.3 µM (≈ 1.55 µg/mL); MIC (Staphylococcus aureus [5]): 5.3 µM (≈ 1.55 µg/mL)
C[C@@H]1[C@H](O)[C@@H](C)/C=C/C=C/C=C/C=C/C=C/C=C/C=C/[C@H](O[C@@H]2O[C@H](C)[C@@H](O)[C@H](N)[C@@H]2O)C[C@@H]2O[C@](O)(C[C@@H](O)C[C@@H](O)[C@H](O)CC[C@@H](O)C[C@@H](O)CC(=O)O[C@H]1C)C[C@H](O)[C@H]2C(=O)O [AMPHOTERICIN B] | 0.4 mg/L |  |  |  | 
O=C1OCC(c2ccccc2)=C1C(O)c1ccccc1 (stereo unspecified) |  |  |  |  | Activity (Penicillium chrysogenum [7]): inactive; Activity (Staphylococcus aureus [8]): inactive; Activity (Mycolicibacterium vaccae [9]): inactive; Activity (Staphylococcus aureus [10]): inactive; Activity (Enterococcus faecalis [11]): inactive; Activity (Bacillus subtilis [12]): inactive
O=C(O)c1cn(C2CC2)c2cc(N3CCNCC3)c(F)cc2c1=O [CIPROFLOXACIN] |  | < 0.05 mg/L | 1.56 mg/L | 0.2 mg/L | 
